From patent EP4796551A1, “ZWITTERIONIC PHOSPHOLIPID COMPOUND AND LIPID NANOPARTICLE CONTAINING THE SAME” (National University Corporation Hokkaido University, priority 2023, dated 2025)

Experiments:
[1] = Lipid polymorphism by 31P NMR method (mixtures with POPC); format: physicochemical
Method: In order to examine the interaction between DOPE-Cx and PC and characteristics thereof, lipid polymorphism of the lipid suspension was evaluated by a ^31P NMR method. Since the rotational motion of lipid molecules in a lamellar phase which is a planar structure and a (inverted) hexagonal phase which is a tubular structure receives different restrictions respectively, a specific ^31P NMR spectrum is provided by chemical shift anisotropy. Specifically, the lamellar phase produces a broad […] peak, and the (inverted) hexagonal phase produces a broad […] peak.
First, DOPE or DOPE-C8 and 1-palmitoyl-2-oleoyl-sn-glycero-3-phosphocholine (POPC) were mixed at a predetermined ratio in 400 µL of chloroform (total lipid 16 µmol), and the solvent was removed by a rotary evaporator to form a lipid membrane. The lipid membrane was hydrated with 500 µL of 20 mM HEPES buffer (pH 7.4, 130 mM NaCl) at 60°C. Then, the lipid dispersion was transferred to an NMR tube, and a ^31P NMR spectrum at room temperature was measured by a conventional method using an ECX 400P spectrometer (JEOL Ltd.).

erythrocytes (RBCs) = assay: Membrane disruption ability of LNP (hemolytic activity); format: cell-based, BALB/c mice; conditions: pH 6.0, 37°C, 30 minutes, Fig. 6B
Method: In order to use as an index of endosomal escape efficiency of LNP, membrane disruption ability of LNP was evaluated using erythrocytes as a model biological membrane. Specifically, fresh erythrocytes (RBCs) were collected from BALB/c mice and suspended in a buffer solution (10 mM malic acid, 10 mM HEPES, 10 mM MES, and 120 mM NaCl) at pH 5.0, 6.0, or 7.4. The RBC suspension was mixed with the same amount of each LNP suspension (containing DOPE-C8, DOPE, or DSPC as phospholipid) and reacted at 37°C for 30 minutes. Then, the supernatant was collected, absorbance at 545 nm was measured, and hemoglobin leaked from the erythrocytes was quantified. As a positive control, a sample hemolyzed with 0.5 w/v% Triton X-100 was prepared, and as a negative control, a sample not containing LNP was prepared. The ratio of the absorbance of the test sample to the absorbance of the positive control was expressed as % hemolytic activity.

[2] = Particle size, PDI and ζ-potential of mRNA-LNP (Zetasizer Nano ZS); format: physicochemical; conditions: mRNA-LNP formulation phospholipid:CL4F6:Chol:PEG-DMG 10:50:40:1.0, Fluc mRNA
Method: (§1) Ethanol solutions containing each phospholipid, CL4F6, Chol, and PEG2000-dimirystoylglycerol (PEG-DMG) at the molar ratio of 10:50:40:1.0 were prepared at the total lipid concentration of 16 mM. For fluorescent labeling of LNPs, 0.5 mol% of DiI or DiR was added to the above solutions. The firefly luciferase (Fluc)-encoding mRNA (TriLink) was dissolved in a 25 mM acetate buffer (pH 4.0). LNPs were prepared by mixing the lipids in ethanol and RNA in an aqueous solution using an iLiNP device at a total flow rate (TFR) of 0.5 mL/min and a flow rate ratio (FRR) (RNA flow rate/lipid flow rate) of 3. The nitrogen to phosphate (N/P) ratio was adjusted to 6. Syringe pumps (Harvard apparatus) were used to control the flow rate of the solutions. The resulting LNP solutions were then dialyzed for 2 hours or more at 4 °C against phosphate buffered saline without Ca^2+ and Mg^2+ (PBS(-)) using Spectra/Por 4 dialysis membranes (molecular weight cut-off 12,000-14,000 Da, Spectrum Laboratories). The LNP solutions were concentrated by ultrafiltration using an Amicon Ultra-15 unit (MWCO 100 kDa, Millipore) as needed.
(§2) The ζ-average particle size, polydispersity index (PDI), and ζ-potential of the LNPs were measured by means of a Zetasizer Nano ZS ZEN3600 instrument (Malvern Instruments). The encapsulation efficiency and total concentration of mRNA were measured by a Ribogreen assay according to a conventional method.

[3] = Ribogreen assay, mRNA encapsulation efficiency of LNP; format: physicochemical; conditions: mRNA-LNP formulation phospholipid:CL4F6:Chol:PEG-DMG 10:50:40:1.0, Fluc mRNA
Method: as §1, §2

[4] = Lipid polymorphism by SAXS method; format: physicochemical; conditions: DOPE-C8 and POPC at a molar ratio of 1:1, Fig. 10
Method: In order to identify the phase of the lipid suspension obtained by mixing DOPE-C8 and POPC at a molar ratio of 1:1, measurement by a small-angle X-ray scattering (SAXS) method was performed by a conventional method using a NANO-Viewer apparatus (Rigaku Corporation).

liver [5] = assay: mRNA introduction ability: luciferase activity in the liver after intravenous Fluc mRNA-LNP; format: in vivo, BALB/c mice; conditions: Fig. 2, n=3, LNP containing the phospholipid, 0.01 mg RNA/kg, livers collected 6 hours later
Method: as §1, with “The resulting LNP solutions were then dialyzed for 2 hours or more at 4 °C against phosphate buffered saline without Ca^2+ and Mg^2+ (PBS(-)) using Spectra/Por 4 dialysis membranes (molecular weight cut-off 12,000-14,000 Da, Spectrum Laboratories). The LNP solutions were concentrated by ultrafiltration using an Amicon Ultra-15 unit (MWCO 100 kDa, Millipore) as needed.” left out
The mRNA-LNP formulations prepared in the above item (2) were intravenously administered to BALB/c mice at a dose of 0.01 mg RNA/kg, and the livers were collected by a conventional method 6 hours later. […] The supernatant was collected, and […] was measured by a luminometer (Luminescencer-PSN, ATTO Corporation) using Luciferase Assay System (Promega). The protein concentration was determined using a BCA protein assay kit (Pierce). Fluc activity was expressed as relative light units (RLU) per 1 mg of protein.

liver [6] = assay: EGFP expression in the liver after intravenous EGFP mRNA-LNP (CLSM); format: in vivo, BALB/c mice; conditions: Fig. 5, LNP containing the phospholipid, 1 mg RNA/kg, 24 hours later, compared with DSPC or DOPE LNP
Method: Further, an mRNA-LNP formulation was prepared in the same manner as in the above item (2) except that mRNA encoding EGFP (TriLink) was used as mRNA, and it was intravenously administered to BALB/c mice at a dose of 1 mg RNA/kg. Then, 24 hours later, the liver was collected by a conventional method, and expression of EGFP was observed using a confocal laser scanning microscope (CLSM).

[7] = lipid alone (lipid:POPC=1:0), 20 mM HEPES pH 7.4, room temperature

CCCCCCCC/C=C\CCCCCCCC(=O)OC[C@H](COP(=O)(O)OCCN)OC(=O)CCCCCCC/C=C\CCCCCCCC [DOPE, 1,2-dioleoyl-sn-glycero-3-phosphoethanolamine, reference compound]
lipid phase by 31P NMR spectrum [1, 7]: spectrum derived from the inverted hexagonal phase | lipid phase by 31P NMR spectrum ([1]; lipid:POPC=9:1, 20 mM HEPES pH 7.4, room temperature): transition to the lamellar phase occurred | membrane disruption activity (hemolytic activity) (erythrocytes (RBCs)): higher membrane disruption activity than the LNP containing DSPC | Number average particle size (nm) ([2]; Table 1): 57 nm | PDI ([2]; Table 1): 0.25 | ζ-potential (mV) ([2]; Table 1): -2.5 mV | ζ-average particle size (nm) ([2]; Table 1, N/P 6): 88 nm | Number average particle size (nm) ([2]; Table 2): 67 nm | PDI ([2]; Table 2): 0.13 | ζ-average particle size (nm) ([2]; Table 2): 95 nm | ζ-potential (mV) ([2]; Table 2): -2.9 mV | mRNA encapsulation rate % ([3]; Table 1): 93.0% | mRNA encapsulation rate % ([3]; Table 2): 92.8%

CCCCCCCC/C=C\CCCCCCCC(=O)OC[C@H](COP(=O)(O)OCCNCCC(=O)OCCCCCCCC)OC(=O)CCCCCCC/C=C\CCCCCCCC [DOPE-C8, (R)-2,3-bis(oleoyloxy)propyl (2-((3-(octyloxy)-3-oxopropyl)ammonio)ethyl) phosphate]
lipid phase by 31P NMR spectrum ([1]; POPC content increased beyond 1:1, Fig. 7B): the peak derived from the lamellar phase became stronger in a POPC content-dependent manner | lipid phase by 31P NMR spectrum [1, 7]: spectrum derived from the inverted hexagonal phase | lipid phase by 31P NMR spectrum ([1]; lipid:POPC molar ratio 1:1, 20 mM HEPES pH 7.4, room temperature): sharp peak centered at 0 ppm | membrane disruption activity (hemolytic activity) (erythrocytes (RBCs)): higher membrane disruption activity than the LNP containing DSPC | phase of the lipid suspension by SAXS [4]: Im3m type inverse bicontinuous cubic phase | Number average particle size (nm) ([2]; Table 1): 62 nm | PDI ([2]; Table 1): 0.21 | ζ-potential (mV) ([2]; Table 1): -5.6 mV | ζ-average particle size (nm) ([2]; Table 1, N/P 6): 94 nm | Number average particle size (nm) ([2]; Table 3): 55 nm | PDI ([2]; Table 3): 0.17 | ζ-average particle size (nm) ([2]; Table 3): 80 nm | ζ-potential (mV) ([2]; Table 3): -12.8 mV | mRNA encapsulation rate % ([3]; Table 1): 92.6% | mRNA encapsulation rate % ([3]; Table 3): 97.6% | luciferase activity in the liver (liver [5]): highest activity | expression of EGFP in the liver (liver [6]): significantly higher expression of EGFP
